Data from ChEMBL document CHEMBL4765331, “Amides of pyrrole- and thiophene-fused anthraquinone derivatives: A role of the heterocyclic core in antitumor properties” (Eur J Med Chem, 2020).
The source made the active and inactive calls. No cut-off for these calls is given here.

Columns and labels:
[1] = tested on: CAPAN-1; assay: Antiproliferative activity against human CAPAN-1 cells assessed as inhibition of cell proliferation measured after 72 hrs by MTT assay; type: functional, cell-based; details: CAPAN-1, 72 h
[2] = tested on: HCT-116; assay: Antiproliferative activity against human HCT-116 cells assessed as inhibition of cell proliferation measured after 72 hrs by MTT assay; type: functional, cell-based; details: HCT-116, 72 h
[3] = tested on: NCI-H460; assay: Antiproliferative activity against human NCI-H460 cells assessed as inhibition of cell proliferation measured after 72 hrs by MTT assay; type: functional, cell-based; details: NCI-H460, 72 h
[4] = tested on: HL-60; assay: Antiproliferative activity against human HL-60 cells assessed as inhibition of cell proliferation measured after 72 hrs by MTT assay; type: functional, cell-based; details: HL-60, 72 h
[5] = tested on: K562; assay: Antiproliferative activity against human K562 cells assessed as inhibition of cell proliferation measured after 72 hrs by MTT assay; type: functional, cell-based; details: K562, 72 h
[6] = Antiproliferative activity against P-gp-positive/doxorubicin-resistant human K562/4 cells assessed as inhibition of cell proliferation measured after 72 hrs by MTT assay; type: functional; details: K562/4, 72 h
[7] = tested on: HCT-116; assay: Antiproliferative activity against human HCT-116 cells with inactivated p53 gene assessed as inhibition of cell proliferation measured after 72 hrs by MTT assay; type: functional, cell-based; details: HCT-116, 72 h
[8] = tested on: TERT-RPE1; assay: Cytotoxicity against human TERT-RPE1 cells assessed as inhibition of cell proliferation measured after 72 hrs by MTT assay; type: cell-based; details: RPE-1, 72 h
[9] = Selectivity index, ratio of IC50 for human TERT-RPE1 cells to IC50 for human CAPAN-1 cells
[10] = Resistance index, ratio of IC50 for human P-gp-positive/Doxorubicin-resistant K562/4 cells to IC50 for human K562 cells; type: functional
[11] = tested on: Calf thymus DNA; assay: Binding affinity to calf thymus double stranded DNA at 10 uM measured after 5 mins by flourescence spectroscopy method; details: Bos taurus
[12] = tested on: Calf thymus DNA; assay: Binding affinity to calf thymus DNA assessed as DNA intercalation by measuring decrease of negative DNA band at 245 nm at 50 uM by circular dichroism spectral analysis; type: tissue-based; details: Bos taurus
[13] = tested on: Calf thymus DNA; assay: Binding affinity to calf thymus DNA assessed as binding constant by scatchard plot analysis; details: Bos taurus
[14] = tested on: Calf thymus DNA; assay: Binding affinity to calf thymus DNA assessed as dissociation constant by scatchard plot analysis; set-up: species or system Bos taurus
[15] = tested on: Calf thymus DNA; assay: Binding affinity to calf thymus DNA assessed as stoichiometry ratio of compound-DNA complex formation by scatchard plot analysis; details: Bos taurus
[16] = target: T1, DNA topoisomerase 1 (Homo sapiens) (UniProt P11387); assay: Inhibition of human topoisomerase 1-mediated relaxation of supercoiled plasmid using pBR322 plasmid as substrate at 40 uM measured after 30 mins by ethidium bromide dye based agarose gel electrophoresis method
T1 sequence (whole entry): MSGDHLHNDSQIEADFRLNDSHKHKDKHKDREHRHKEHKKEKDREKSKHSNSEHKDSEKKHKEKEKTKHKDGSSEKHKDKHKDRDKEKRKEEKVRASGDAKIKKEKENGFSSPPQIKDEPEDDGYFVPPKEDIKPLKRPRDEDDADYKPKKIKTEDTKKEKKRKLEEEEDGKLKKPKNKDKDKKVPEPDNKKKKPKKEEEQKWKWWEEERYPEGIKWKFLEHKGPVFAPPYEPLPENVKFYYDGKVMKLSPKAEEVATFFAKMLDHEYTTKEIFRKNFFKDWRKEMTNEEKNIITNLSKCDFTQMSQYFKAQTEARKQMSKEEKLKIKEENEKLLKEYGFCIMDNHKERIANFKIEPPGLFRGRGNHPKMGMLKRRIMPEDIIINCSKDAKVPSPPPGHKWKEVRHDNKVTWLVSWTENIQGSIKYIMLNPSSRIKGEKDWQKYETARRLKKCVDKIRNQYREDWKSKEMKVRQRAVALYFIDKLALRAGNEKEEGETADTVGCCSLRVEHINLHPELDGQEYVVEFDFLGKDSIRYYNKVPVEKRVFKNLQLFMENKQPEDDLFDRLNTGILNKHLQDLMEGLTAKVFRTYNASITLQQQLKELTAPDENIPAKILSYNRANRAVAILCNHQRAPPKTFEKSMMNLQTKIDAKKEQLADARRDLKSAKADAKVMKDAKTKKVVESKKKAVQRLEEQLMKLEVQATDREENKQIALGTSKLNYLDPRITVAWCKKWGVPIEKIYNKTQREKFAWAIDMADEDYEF

[17] = Drug uptake in mouse NIH3T3 cells assessed as compound localization in nucleus at 1 uM measured after 15 mins by laser scanning microscope; type: ADME, subcellular; details: nih3t3, 0.25 h
[18] = Drug uptake in mouse NIH3T3 cells assessed as compound localization in mitochondria at 1 uM measured after 15 mins by Mitotracker Green FM dye based laser scanning microscope; type: ADME; details: nih3t3, 0.25 h
[19] = Drug uptake in mouse NIH3T3 cells assessed as compound localization in cytoplasm at 1 uM measured after 15 mins by laser scanning microscope; type: ADME, subcellular; details: nih3t3, 0.25 h
[20] = tested on: K562; assay: Induction of apoptosis in human K562 cells assessed as viable cells at 3.2 uM measured after 24 hrs by Annexin V-APC/PI staining based flow cytometry assay (reference value: 85.9%); type: functional; details: read-out: Activity
[21] = tested on: K562; assay: Induction of apoptosis in human K562 cells assessed as viable cells at 3.2 uM measured after 48 hrs by Annexin V-APC/PI staining based flow cytometry assay (reference value: 85.9%); type: functional; details: read-out: Activity
[22] = tested on: K562; assay: Induction of apoptosis in human K562 cells assessed as early apoptotic cells at 3.2 uM measured after 24 hrs by Annexin V-APC/PI staining based flow cytometry assay (reference value: 3.4%); type: functional
[23] = tested on: K562; assay: Induction of apoptosis in human K562 cells assessed as early apoptotic cells at 3.2 uM measured after 48 hrs by Annexin V-APC/PI staining based flow cytometry assay (reference value: 3.4%); type: functional
[24] = tested on: K562; assay: Induction of apoptosis in human K562 cells assessed as late apoptotic cells at 3.2 uM measured after 24 hrs by Annexin V-APC/PI staining based flow cytometry assay (reference value: […]); type: functional
[25] = tested on: K562; assay: Induction of apoptosis in human K562 cells assessed as late apoptotic cells at 3.2 uM measured after 48 hrs by Annexin V-APC/PI staining based flow cytometry assay (reference value: […]); type: functional
[26] = tested on: K562; assay: Induction of apoptosis in human K562 cells assessed as necrotic cells at 3.2 uM measured after 24 hrs by Annexin V-APC/PI staining based flow cytometry assay (reference value: 3.9%); type: functional
[27] = tested on: K562; assay: Induction of apoptosis in human K562 cells assessed as necrotic cells at 3.2 uM measured after 48 hrs by Annexin V-APC/PI staining based flow cytometry assay (reference value: 3.9%); type: functional
[28] = tested on: K562; assay: Induction of oxidative stress in human K562 cells assessed as increase in intracellular ROS generation at 3.2 uM measured after 40 mins by Deep Red dye based flow cytometry method; type: functional, cell-based
[29] = Selectivity index, ratio of IC50 for human TERT-RPE1 cells to IC50 for human HCT-116 cells; type: toxicity; details: TERT-RPE1 cells and HCT-116 cells, read-out: Ratio IC50
[30] = Selectivity index, ratio of IC50 for human TERT-RPE1 cells to IC50 for human NCI-H460 cells; type: toxicity; details: TERT-RPE1 cells and NCI-H460 cells, read-out: Ratio IC50
[31] = Selectivity index, ratio of IC50 for human TERT-RPE1 cells to IC50 for human HL-60 cells; type: toxicity; details: TERT-RPE1 cells and HL-60 cells, read-out: Ratio IC50
[32] = Selectivity index, ratio of IC50 for human TERT-RPE1 cells to IC50 for human K562 cells; type: toxicity; details: TERT-RPE1 cells and K562 cells, read-out: Ratio IC50
[33] = Drug uptake in P-gp-positive/doxorubicin-resistant human K562/4 cells; type: ADME
[34] = Drug uptake in human K562i/S9 cells harboring exogenously expressed MDR1/Pgp; type: ADME, cell-based
[35] = tested on: K562; assay: Induction of cell cycle arrest in human K562 cells assessed as accumulation at G2/M phase at 2XIC50 measured after 24 hrs by propidium iodide/RNase staining based flow cytometry; type: functional
[36] = tested on: K562; assay: Induction of cell cycle arrest in human K562 cells assessed as accumulation at G2/M phase at 2XIC50 measured after 48 hrs by propidium iodide/RNase staining based flow cytometry; type: functional
[37] = tested on: K562; assay: Induction of cell cycle arrest in human K562 cells assessed as accumulation at subG1 phase at 2XIC50 measured after 24 hrs by propidium iodide/RNase staining based flow cytometry; type: functional
[38] = tested on: K562; assay: Induction of apoptosis in human K562 cells assessed as viable cells at 1.6 uM measured after 24 hrs by Annexin V-APC/PI staining based flow cytometry assay (reference value: 85.9%); type: functional; details: read-out: Activity
[39] = tested on: K562; assay: Induction of apoptosis in human K562 cells assessed as viable cells at 1.6 uM measured after 48 hrs by Annexin V-APC/PI staining based flow cytometry assay (reference value: 85.9%); type: functional; details: read-out: Activity
[40] = tested on: K562; assay: Induction of apoptosis in human K562 cells assessed as early apoptotic cells at 1.6 uM measured after 24 hrs by Annexin V-APC/PI staining based flow cytometry assay (reference value: 3.4%); type: functional
[41] = tested on: K562; assay: Induction of apoptosis in human K562 cells assessed as early apoptotic cells at 1.6 uM measured after 48 hrs by Annexin V-APC/PI staining based flow cytometry assay (reference value: 3.4%); type: functional
[42] = tested on: K562; assay: Induction of apoptosis in human K562 cells assessed as late apoptotic cells at 1.6 uM measured after 24 hrs by Annexin V-APC/PI staining based flow cytometry assay (reference value: […]); type: functional
[43] = tested on: K562; assay: Induction of apoptosis in human K562 cells assessed as late apoptotic cells at 1.6 uM measured after 48 hrs by Annexin V-APC/PI staining based flow cytometry assay (reference value: […]); type: functional
[44] = tested on: K562; assay: Induction of apoptosis in human K562 cells assessed as necrotic cells at 1.6 uM measured after 24 hrs by Annexin V-APC/PI staining based flow cytometry assay (reference value: 3.9%); type: functional
[45] = tested on: K562; assay: Induction of apoptosis in human K562 cells assessed as necrotic cells at 1.6 uM measured after 48 hrs by Annexin V-APC/PI staining based flow cytometry assay (reference value: 3.9%); type: functional
[46] = tested on: K562; assay: Induction of oxidative stress in human K562 cells assessed as increase in intracellular ROS generation at 1.6 uM measured after 40 mins by Deep Red dye based flow cytometry method; type: functional, cell-based
[47] = Toxicity in ip dosed BDF1 mouse xenografted with mouse P388 cells administered qd for 5 days; type: organism-based; details: in vivo, time 5 day

Structure (SMILES)	IC50 [1] [nM]	IC50 [2] [nM]	IC50 [3] [nM]	IC50 [4] [nM]	IC50 [5] [nM]	IC50 [6] [nM]	IC50 [7] [nM]	IC50 [8] [nM]	Ratio IC50 [9]	Ratio IC50 [10]	Activity [11]	Activity [12]	Kb [13]	Kd [14] [nM]	Ratio [15]	inhibition [16]	selectivity ratio [29]	selectivity ratio [30]	selectivity ratio [31]	selectivity ratio [32]	other results
N[C@H]1CCN(C(=O)c2csc3c(O)c4c(c(O)c23)C(=O)c2ccccc2C4=O)C1	2100	1800	2100	5500	1600	4300	2200	12900	2	2.7	Active	Active	2 10^5/M	5000	2	Active	2	2	2	2	Drug uptake [17]: Active; Drug uptake [18]: Active; Drug uptake [19]: Active; viability at 3.2 µM [20]: 71.2%; viability at 3.2 µM [21]: 54.1%; Activity [22]: 0.8%; Activity [23]: 0.9%; Activity [24]: 6.7%; Activity [25]: 9.9%; Activity [26]: 21.3%; Activity [27]: 35.1%; Activity [28]: Active; Drug uptake [33]: Active; Drug uptake [34]: Active; Activity [35]: Active; Activity [36]: Active; Activity [37]: Active
N[C@H]1CCN(C(=O)c2coc3c(O)c4c(c(O)c23)C(=O)c2ccccc2C4=O)C1	300	1200	400	500	900	1400	1300	11100	9	1.5	Active	Active	0.9 10^5/M	11000	2	Active	9	9	9	9	viability at 1.6 µM [38]: 70%; viability at 1.6 µM [39]: 51.9%; Activity [40]: 1.3%; Activity [41]: 0.5%; Activity [42]: 8.1%; Activity [43]: 9.1%; Activity [44]: 20.6%; Activity [45]: 38.6%; Activity [46]: Active; LD50 at 120 h [47]: 52 mg/kg; Drug uptake [33]: Active; Drug uptake [34]: Active; Activity [36]: Active
